From article PMC5572761 (Journal of medicinal chemistry, 2017)
Where a SMILES comes first, the peptide text is derived from it. Bridges are numbered along the chain shown (N, C = ends).

Columns and labels:
[1] = biological target: rat α6/α3β4 nAChR (Rattus norvegicus, UniProt P04757+P12392+P43143); type: cell-based
[2] = biological target: rat α3β4 nAChR (Rattus norvegicus, UniProt P04757+P12392); type: cell-based
rat α3β4 nAChR, sequence (P04757 26-499 limits assumed): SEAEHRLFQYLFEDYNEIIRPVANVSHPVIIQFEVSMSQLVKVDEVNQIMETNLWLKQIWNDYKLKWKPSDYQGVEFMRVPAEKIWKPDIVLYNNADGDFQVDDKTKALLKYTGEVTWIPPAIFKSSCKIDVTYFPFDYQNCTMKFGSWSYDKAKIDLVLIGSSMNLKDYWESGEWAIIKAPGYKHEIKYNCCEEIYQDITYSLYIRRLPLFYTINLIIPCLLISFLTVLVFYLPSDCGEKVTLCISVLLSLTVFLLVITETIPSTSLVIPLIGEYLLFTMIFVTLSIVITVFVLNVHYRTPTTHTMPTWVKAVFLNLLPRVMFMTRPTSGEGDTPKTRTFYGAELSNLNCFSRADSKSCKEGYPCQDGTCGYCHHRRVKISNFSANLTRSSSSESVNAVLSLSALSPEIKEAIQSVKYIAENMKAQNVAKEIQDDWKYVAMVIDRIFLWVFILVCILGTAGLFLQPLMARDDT
rat α3β4 nAChR, sequence (P12392 21-495 limits assumed): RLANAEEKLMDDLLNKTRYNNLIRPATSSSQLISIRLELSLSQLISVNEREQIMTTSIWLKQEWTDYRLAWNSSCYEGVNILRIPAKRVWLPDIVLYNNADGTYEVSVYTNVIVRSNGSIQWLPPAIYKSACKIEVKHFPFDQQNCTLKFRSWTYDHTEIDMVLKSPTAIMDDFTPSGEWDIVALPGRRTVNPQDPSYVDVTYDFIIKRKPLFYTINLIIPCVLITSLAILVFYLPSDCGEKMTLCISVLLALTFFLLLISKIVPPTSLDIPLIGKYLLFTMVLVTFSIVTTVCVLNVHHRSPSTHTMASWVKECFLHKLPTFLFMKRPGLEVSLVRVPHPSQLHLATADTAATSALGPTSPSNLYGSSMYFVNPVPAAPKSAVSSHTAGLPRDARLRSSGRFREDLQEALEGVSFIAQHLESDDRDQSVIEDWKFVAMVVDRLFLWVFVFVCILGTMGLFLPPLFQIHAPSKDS

rat α6/α3β4 nAChR, sequence (P04757 whole entry, looked up): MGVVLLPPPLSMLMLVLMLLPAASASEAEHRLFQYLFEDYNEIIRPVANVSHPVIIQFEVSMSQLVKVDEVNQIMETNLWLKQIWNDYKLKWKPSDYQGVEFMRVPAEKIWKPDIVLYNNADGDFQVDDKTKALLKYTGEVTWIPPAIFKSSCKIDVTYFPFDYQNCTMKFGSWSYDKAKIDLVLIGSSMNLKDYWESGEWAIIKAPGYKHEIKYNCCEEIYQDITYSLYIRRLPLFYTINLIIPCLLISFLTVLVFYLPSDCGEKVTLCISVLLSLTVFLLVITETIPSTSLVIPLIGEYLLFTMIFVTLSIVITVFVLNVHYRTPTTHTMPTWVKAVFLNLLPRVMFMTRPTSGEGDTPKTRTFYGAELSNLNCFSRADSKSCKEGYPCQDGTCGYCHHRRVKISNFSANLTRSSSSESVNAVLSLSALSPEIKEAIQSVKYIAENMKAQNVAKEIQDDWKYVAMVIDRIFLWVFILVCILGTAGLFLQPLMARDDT
rat α6/α3β4 nAChR, sequence (P12392 whole entry, looked up): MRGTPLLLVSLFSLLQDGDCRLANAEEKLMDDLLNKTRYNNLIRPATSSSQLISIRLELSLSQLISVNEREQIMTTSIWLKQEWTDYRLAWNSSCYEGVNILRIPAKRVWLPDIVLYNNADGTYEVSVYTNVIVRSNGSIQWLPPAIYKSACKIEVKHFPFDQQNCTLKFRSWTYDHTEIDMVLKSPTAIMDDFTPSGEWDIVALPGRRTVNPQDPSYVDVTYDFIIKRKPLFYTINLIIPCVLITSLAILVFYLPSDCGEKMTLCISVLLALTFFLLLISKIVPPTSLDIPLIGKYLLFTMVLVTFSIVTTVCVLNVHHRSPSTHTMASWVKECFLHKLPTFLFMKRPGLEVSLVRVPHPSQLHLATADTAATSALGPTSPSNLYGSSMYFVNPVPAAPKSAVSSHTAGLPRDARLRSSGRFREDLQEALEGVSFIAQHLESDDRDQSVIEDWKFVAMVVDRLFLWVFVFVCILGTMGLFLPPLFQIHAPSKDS
rat α6/α3β4 nAChR, sequence (P43143 whole entry, looked up): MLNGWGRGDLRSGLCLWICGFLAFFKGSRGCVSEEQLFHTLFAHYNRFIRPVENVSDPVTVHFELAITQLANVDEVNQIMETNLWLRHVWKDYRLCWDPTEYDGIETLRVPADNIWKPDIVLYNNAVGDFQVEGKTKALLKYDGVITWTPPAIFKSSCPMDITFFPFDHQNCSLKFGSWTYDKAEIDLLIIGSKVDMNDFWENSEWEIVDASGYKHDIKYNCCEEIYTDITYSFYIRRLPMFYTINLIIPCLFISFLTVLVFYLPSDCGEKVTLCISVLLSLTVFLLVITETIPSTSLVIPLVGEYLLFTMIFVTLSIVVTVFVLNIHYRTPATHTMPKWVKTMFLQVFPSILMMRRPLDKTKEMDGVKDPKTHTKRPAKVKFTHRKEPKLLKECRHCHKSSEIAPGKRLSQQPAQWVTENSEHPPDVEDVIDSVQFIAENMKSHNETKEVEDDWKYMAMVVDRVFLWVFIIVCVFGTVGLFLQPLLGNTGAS

**Q.** What does the source list for `CSCC[C@@H]1NC(=O)[C@H](C)NC(=O)[C@H](CO)NC(=O)[C@@H]2CSSC[C@H](NC(=O)CN)C(=O)N[C@@H](CSSC[C@@H](C(N)=O)NC(=O)[C@H](C)NC(=O)[C@@H]3CCCN3C(=O)[C@H](CO)NC1=O)C(=O)N[C@@H](CO)C(=O)N[C@@H](Cc1c[nH]cn1)C(=O)N1CCC[C@H]1C(=O)N[C@@H](C(C)C)C(=O)N2` [Peptide 11] (H-GCCSHPVCSAMSPAC-NH2; disulfide 2-8, 3-15)?
**A.** Hill slope n^H α6/α3β4 [1]: 1.04 (0.77–1.32); α6/α3β4 IC50 ratio relative to 1 [1]: 1.3; Hill slope n^H α3β4 [2]: 1.05 (0.39–1.70); α3β4 IC50 ratio relative to 1 [2]: 4.4

**Q.** `CSCC[C@@H]1NC(=O)[C@H](C)NC(=O)[C@H](CO)NC(=O)[C@@H]2CSSC[C@H](NC(=O)CN)C(=O)N[C@@H](CSSC[C@@H](C(N)=O)NC(=O)[C@H](CC(=O)O)NC(=O)[C@@H]3CCCN3C(=O)[C@H](CO)NC1=O)C(=O)N[C@@H](CO)C(=O)N[C@@H](Cc1c[nH]cn1)C(=O)N1CCC[C@H]1C(=O)N[C@@H](C(C)C)C(=O)N2` [Peptide 14] (H-GCCSHPVCSAMSPDC-NH2; disulfide 2-8, 3-15) was tested. Which “Hill slope n^H α6/α3β4” value [1] did it give?
**A.** The value was 0.84 (0.69–0.98).

**Q.** And the “α6/α3β4 IC50 ratio relative to 1” value [1]?
**A.** The value was 1.2.

**Q.** And the “Hill slope n^H α3β4” value [2]?
**A.** The value was 1.33 (0.387–2.26).

**Q.** What about the “α3β4 IC50 ratio relative to 1” value [2] of the same molecule?
**A.** The value was 2.7.
